For experiment [1], the system named is cat. As to the kind of experiment: Effect on blood pressure and adrenaline vasopressor response in anaesthetized cat, i.v. (Table 2). As to conditions: for inhibition at 2 µmol/kg / inhibition in vivo at 2 µmol/kg / inhibition in vivo at 10 µmol/kg / inhibition at 10 µmol/kg: Felis catus, iv; for inhibition at 2 µmol/kg / inhibition at 10 µmol/kg: read-out: Adrenaline vasopressure response % inhibition; for inhibition in vivo at 2 µmol/kg / inhibition in vivo at 10 µmol/kg: read-out: B.P. fall %. In kind it is in vivo. The procedure:
• (a) Cats (2.6-4.0 kg) of either sex anaesthetized with pentobarbitone sodium (40 mg/kg i.v.) and showing basal mean arterial blood pressure below 150 mm (Hg) were categorised as normotensive and above 150 mm Hg as hypertensive. Arterial blood pressure (BP) was recorded from one of the carotid artery through a stathum P23 DC pressure transducer and 7P1 low level DC preamplifier on a Grass Model P7 Polygraph, Signals from 7P1 preamplifier were used to trigger 7P4 Tachograph preamplifier for recording the heart rate (HR). Right femoral vein and Trachea were cannulated for intravenous injections and artificial ventilation respectively. Control responses to intravenous injection of noradrenaline (2-4 ug); acetyl choline (1-2 ug); histamine ([…]) and isoprenaline (1-2 ug) were taken before and after the administration of test doses of each compounds.

The test system of experiment [2] is Langendorff perfused rat heart. As to the kind of experiment: Antiischemic activity, Langendorff perfused rat heart, brief (16 min.) ischemic insult, compound given at reperfusion (Table 3). As to conditions: 0.001 ug/ml at reperfusion. Here is the method:
Table 3: Compound administered at the time of reperfusion at a dose of 0.001 ug/ml on brief period (16 min.) of ischemic insult.
(§1) The rats were killed by decapitation, heart were rapidly excised and placed in ice-cold HEPES tyrode buffer. Then isolated hearts were perfused retrogradely through coronary arteries using the Langendorff technique. The perfusion buffer consisted (in mM) NaCl 137, KCl 5.4, CaCl2 1.8, MgCl2 1.0, glucose 11.2 and HEPES 3.0. The buffer (pH 7.4) was continuously gassed with oxygen and maintained at 37°C. Coronary flow rate was maintained at 10 ml/min. The heart contracted spontaneously.
(§2) The perfused heart was allowed to equilibrate for 30 min. before initiation of any insult protocol. The text compounds were given at the time of reperfusion. Some of the compounds were dissolved in ethanol. Final concentration of ethanol in the perfusion buffer was 0.0001% and had no effect of its own on the parameter used. • (a) For brief period of ischemic insult (Hideo et al.). Pathophysiology and pathogenesis of stunned myocardium. J. Clin. Invest., 79, 950-961, 1987). Ischemia was initiated by stopping the flow for 16 min. followed by 30 min. reperfusion period. The durations were decided on the initial pilot experiments leading to 50% recovery of function. • (b) For prolong period of ischemic insult (Becker, L.C. & Ambrosio, G. Myocardial consequences of reperfusion. Prog. Cardiovas. Dis., 30, 23-44, 1987). Ischemia was initiated by stopping the flow for […]. followed by 30 min. reperfusion.

The subject of experiment [3] is Langendorff perfused rat heart preparation. As to the kind of experiment: Cardioprotective activity, Langendorff perfused rat heart, prolonged ischemic insult, compound given at reperfusion. As to conditions: 10^-6M, ischemic insult 45 min. The procedure: Further, in Langendorff perfused rat heart preparation subjected to even upto 90 min. global ischemia, the compound at 0.001 ug/ml conc. given at the time of reperfusion revived normal rhythmic contraction started within 2 min. (Table 1) and incidence of reperfusion induced arrhythmia were abolished. Table 1: Compound administered at the time of reperfusion at the dose of 0.001 ug/ml on prolong period (90 min.) of ischemic insult.
as §1, §2

Experiment [4] deals with cat. The experiment is described as follows: Comparative antihypertensive effect with clinically used antihypertensive drugs in cat. The format is in vivo. As to conditions: 2 uMol/kg i.v.

Where only a bound is given, the exact number is not on record here.

Broadly, the inhibition is the drop in the measured response relative to a control, in per cent. As to `CCc1ccccc1N1CCN(CCCN2CCCC2=O)CC1` [C6H4-2-C2H5, n=1, 1-[4-(2-ethylphenyl)piperazin-1-yl]-3-[2-oxopyrrolidin-1-yl] propane], in the experiment with cat [1] (dose 2.0 umol/kg i.v.), the inhibition at 2 µmol/kg was -20 to 0%, the inhibition in vivo at 2 µmol/kg came out at 13% and the Dur. is 10 min. Also, in the experiment with cat [1] (dose 10.0 umol/kg i.v.), the inhibition in vivo at 10 µmol/kg turned out to be 62% and the Dur. was 10 min. Moreover, the Onset in experiment [2] worked out at 3.0 min.
Regarding `O=C1CCCN1CCCN1CCN(c2cccc(Cl)c2)CC1` [C6H4-3-Cl, n=1, 1-[4-(3-chlorophenyl)piperazin-1-yl]-3-[2-oxopyrrolidin-1-yl]propane], in the experiment with cat [1] (dose 2.0 umol/kg i.v.), the inhibition at 2 µmol/kg was -20 to 0%, the inhibition in vivo at 2 µmol/kg was found to be 25% and the Dur. came to 20 min. For the same compound, the Dur. in the experiment with cat [1] (dose 10.0 umol/kg i.v.) is over 57 min. In addition, in experiment [2], the Onset amounted to 1.0 min.
For `CCc1ccc(N2CCN(CCCN3CCCC3=O)CC2)cc1` [C6H4-4-C2H5, n=1, 1-[4-(4-ethylphenyl)piperazin-1-yl]-3-[2-oxopyrrolidin-1-yl]propane], in the experiment with cat [1] (dose 2.0 umol/kg i.v.), the inhibition in vivo at 2 µmol/kg is 9% and the Dur. entry is recorded as “Tr”. In addition, in the experiment with cat [1] (dose 10.0 umol/kg i.v.), the inhibition in vivo at 10 µmol/kg was 20% and the Dur. turned out to be 14 min. Further, the Onset in experiment [2] stood at 2.0 min.
As to `O=C1CCCCN1CCCN1CCN(c2cccc(C(F)(F)F)c2)CC1` [C6H4-3-CF3, n=2, 1-[4-(3-trifluoromethylphenyl)piperazin-1-yl]-3-[2-oxopiperidin-1-yl]propane], the inhibition at 2 µmol/kg in the experiment on cat [1] (dose 2.0 umol/kg i.v.) was -20 to 0%. Besides, in the experiment with cat [1] (dose 10.0 umol/kg i.v.), the inhibition at 10 µmol/kg came out at 25%, the inhibition in vivo at 10 µmol/kg is 10% and the Dur. entry is “Tr”.
With `O=C1CCCCN1CCCN1CCN(c2ccccn2)CC1` [2-Pyridyl, n=2, 1-[4-(2-pyridyl)piperazin-1-yl]-3-[2-oxopiperidin-1-yl] propane], in the experiment with cat [1] (dose 2.0 umol/kg i.v.), the inhibition at 2 µmol/kg was found to be 28%, the inhibition in vivo at 2 µmol/kg was determined as 34% and the Dur. came to 53 min. Further, in the experiment on cat [1] (dose 10.0 umol/kg i.v.), the inhibition at 10 µmol/kg is -20 to 0%, the inhibition in vivo at 10 µmol/kg amounted to 42% and the Dur. is over 71 min. Further, in experiment [2], the Onset came out at 2.0 min, the “Percentage recovery 15 min.” value was 47.60 Percentage and the “Percentage recovery 30 min.” value was 71.40 Percentage.
With `O=C1CCCN1CCCN1CCN(c2cccc(F)c2)CC1` [C6H4-3-F, n=1, 1-[4-(3-fluorophenyl)piperazin-1-yl]-3-[2-oxopyrrolidin-1-yl]propane], in the experiment on cat [1] (dose 2.0 umol/kg i.v.), the inhibition at 2 µmol/kg amounted to 80%, the inhibition in vivo at 2 µmol/kg was found to be 18% and the Dur. came out at 3 min. For the same compound, in the experiment on cat [1] (dose 10.0 umol/kg i.v.), the inhibition at 10 µmol/kg is over 100%, the inhibition in vivo at 10 µmol/kg was 32% and the Dur. was determined as 30 min. This compound also gave an Onset in experiment [2] of 2.0 min.
On to `O=C1CCCCN1CCCN1CCN(c2ccc(Cl)cc2)CC1` [C6H4-4-Cl, n=2, 1-[4-(4-chlorophenyl)piperazin-1-yl]-3-[2-oxopiperidin-1-yl] propane], for which, in the experiment on cat [1] (dose 2.0 umol/kg i.v.), the inhibition at 2 µmol/kg turned out to be 20%, the inhibition in vivo at 2 µmol/kg is 24% and the Dur. stood at 20 min. Further, in the experiment with cat [1] (dose 10.0 umol/kg i.v.), the inhibition at 10 µmol/kg was determined as 25%, the inhibition in vivo at 10 µmol/kg stood at 46% and the Dur. came to 25 min.
Take `O=C1CCCCN1CCCN1CCN(c2cccc(Cl)c2)CC1` [C6H4-3-Cl, n=2, 1-[4-(3-chlorophenyl)piperazin-1-yl]-3-[2-oxopiperidin-1-yl] propane]: in the experiment on cat [1] (dose 2.0 umol/kg i.v.), the inhibition at 2 µmol/kg was found to be 33%, the inhibition in vivo at 2 µmol/kg was 27% and the Dur. turned out to be 9 min. In the experiment on cat [1] (dose 10.0 umol/kg i.v.), the inhibition at 10 µmol/kg was 10%, the inhibition in vivo at 10 µmol/kg came out at 44% and the Dur. stood at 62 min. Besides, in experiment [2], the Onset worked out at 3.0 min, the “Percentage recovery 15 min.” value is listed as 31.50 Percentage and the “Percentage recovery 30 min.” value was determined as 39.40 Percentage.
Regarding `O=C1CCCCN1CCCN1CCN(c2ccc(F)cc2)CC1` [C6H4-4-F, n=2, 1-[4-(4-fluorophenyl)piperazin-1-yl]-3-[2-oxopiperidin-1-yl] propane], in the experiment with cat [1] (dose 2.0 umol/kg i.v.), the inhibition at 2 µmol/kg came out at 46%, the inhibition in vivo at 2 µmol/kg stood at 23% and the Dur. came out at 40 min. In addition, in the experiment on cat [1] (dose 10.0 umol/kg i.v.), the inhibition at 10 µmol/kg is over 100%, the inhibition in vivo at 10 µmol/kg came out at 33% and the Dur. was over 84 min.
As for `O=C1CCCN1CCCN1CCN(c2ccc(Cl)cc2)CC1` [C6H4-4-Cl, n=1, 1-[4-(4-chlorophenyl)piperazin-1-yl]-3-[2-oxopyrrolidin-1-yl]propane], the Onset in experiment [2] came to 1.0 min.
Turning to `COC(=O)C1=C(C)NC(C)=C(C(=O)OC)C1c1ccccc1[N+](=O)[O-]` [Nifedipine, reference compound], the Onset in experiment [3] amounted to 2.5 min.
In the experiment with cat [4], `C[C@H](CS)C(=O)N1CCC[C@H]1C(=O)O` [Captopril, reference compound] displayed a B.P. fall of 14% and a Dur. of 28 min.

Source of the values: patent EP0911330B1, “1-(4-Arylpiperazine-1-y1)-3-(2-oxopyrrolidin/piperidin-1-y1) propanes as therapeutic agents for hypertension, ischemia, cardiovascular and other adrenergic receptors related disorders” (Council of Scientific & Industrial Research, priority 1997, dated 1999).
